Where “and” joins values, the source holds several entries; their conditions need not be identical. Identical values can stand only once.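 The compound was tested at five concentrations on cells cultured in 96-well plates, with a 48-hour exposure period. GI50 marks 50% less growth. TGI is the concentration that stops growth completely.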
Columns and labels:
Assay in all cases: inhibition of tumour cell growth, NCI panel, 48 h
[1] = test system: EKVX NSCLC
[2] = test system: HOP-62 NSCLC
[3] = test system: K-562 leukemia
[4] = test system: MCF7 breast
[5] = test system: MOLT-4 leukemia
[6] = test system: NCI-H460 lung
[7] = test system: OVCAR-5 ovarian
[8] = test system: SK-OV-3 ovarian
[9] = test system: SNB-19 CNS
[10] = test system: MALME-3M melanoma
[11] = test system: NCI-H522 lung

Compound | TGI [1] [µM] | TGI [2] | TGI [3] [µM] | TGI [4] [µM] | TGI [5] [µM] | TGI [6] [µM] | TGI [7] | TGI [8] [µM] | TGI [9] [µM] | TGI [10] | TGI [11] [µM] | GI50 [10] [µM]
CC1(C)C2CCC(N)(C2)C1O (stereo unspecified) | > 100 | > 100 µM | > 100 | > 100 | > 100 | > 100 | > 100 µM | > 100 | > 100 | – | – | –
O=C1NC2(C=Cc3c(ccc4ccccc34)O2)Oc2ccccc21 (stereo unspecified) | 82.3 | > 100 µM | > 100 | – | 30.5 | > 100 | > 100 µM | – | 79.1 | > 100 µM | 38.8 | –
C[N+](C)(C)CC1CCCC/C1=N\O (stereo unspecified) | > 100 | > 100 µM | > 100 | – | > 100 | > 100 | > 100 µM | > 100 | > 100 | > 100 µM | > 100 | –
CC1(C)CC2C(C1=O)C1(C)CCCC2(C)C1=O (stereo unspecified) | > 100 | > 100 µM | > 100 | > 100 | > 100 | > 100 | > 100 µM | > 100 | – | > 100 µM | – | –
CC1(C)c2ccccc2C(O)C12CCC(=O)CC2 (stereo unspecified) | > 100 | > 100 µM | > 100 | – | – | > 100 | > 100 µM | > 100 | > 100 | > 100 µM | > 100 | –
COc1ccc(C2C(Cl)C(=O)N2NC(=O)Cc2ccccc2)cc1OC (stereo unspecified) | > 100 | > 100 µM | > 100 | – | > 100 | > 100 | > 100 µM | > 100 | > 100 | > 100 µM | > 100 | –
COC(=O)C1C2CC3C(OC(=O)C31)C2OC(=O)[C@](OC)(c1ccccc1)C(F)(F)F (stereo partly specified) | > 100 | > 100 µM | > 100 | – | > 100 | > 100 | > 100 µM | > 100 | > 100 | > 100 µM | > 100 | –
Cc1ncc([N+](=O)[O-])n1CCNC(=O)CCCCCn1ccnc1[N+](=O)[O-] | – | > 100 µM | > 100 | > 100 | > 100 | > 100 | > 100 µM | > 100 | > 100 | > 100 µM | > 100 | –
O=C1C[C@H](c2ccc(O)c(O)c2)Oc2cc(O)cc(O)c21 | > 100 | > 100 µM | > 100 | – | > 100 | > 100 | > 100 µM | > 100 | > 100 | > 100 µM | > 100 | –
CC1=CC(=O)/C(=C/n2c(=S)[nH]c3ccccc32)C(=O)O1 | > 100 | > 100 µM | > 100 | > 100 | > 100 | > 100 | > 100 µM | > 100 | > 100 | – | > 100 | –
COCCNC1CCC2(SCCS2)c2[nH]c3ccccc3c21 (stereo unspecified) | > 100 | > 100 µM | > 100 | 39.3 | > 100 | > 100 | > 100 µM | – | > 100 | – | > 100 | –
CCCCNC(=S)Nc1nc(C(=O)NNC(=O)c2ccccc2)cs1 | > 100 | 42.9 µM | > 100 | – | > 100 | – | 35 µM | 35.3 | – | 38.8 µM | 43.7 | –
OC(c1ccccc1)(c1cccnc1)C(O)(c1ccccc1)c1cccnc1 (stereo unspecified) | > 100 | – | – | > 100 | – | > 100 | > 100 µM | > 100 | > 100 | > 100 µM | > 100 | –
OC1c2ccccc2C(O)C2OC12 (stereo unspecified) | – | > 100 µM | > 100 | > 100 | > 100 | > 100 | > 100 µM | > 100 | > 100 | > 100 µM | > 100 | –
C=CCC(CNC(=O)OCc1ccccc1)OC(=O)OCc1ccccc1 (stereo unspecified) | > 100 | > 100 µM | > 100 | > 100 | > 100 | > 100 | > 100 µM | > 100 | > 100 | – | > 100 | –
CCN(CC)CCC(=O)c1ccc(Oc2ccc(F)cc2)cc1 | 39.4 | 56.6 µM | > 100 | 38.7 | 51.3 | – | 35 µM | > 100 | 33.6 | 34.9 µM | – | –
O=[N+]([O-])c1cc(Cl)ccc1S(=O)(=O)N1CCCc2cc(Cl)ccc21 | > 100 | > 100 µM | > 100 | > 100 | > 100 | > 100 | > 100 µM | > 100 | > 100 | > 100 µM | – | –

Compound | TGI [1] [µM] | TGI [2] | TGI [3] [µM] | TGI [4] [µM] | TGI [5] [µM] | TGI [6] [µM] | TGI [7] | TGI [8] [µM] | TGI [9] [µM] | TGI [10] | TGI [11] [µM] | GI50 [10] [µM]
COc1cc2c(c(OC)c1OC)-c1ccc(SC)cc1C(=O)CC2 | > 100 | – | – | > 100 | > 100 | > 32.1 | > 100 µM | < 0.01 | > 100 | > 21.9 µM | – | –
COc1ccc(N2C(=O)C3CC4=CC(=O)C[C@H]4[C@H]32)cc1 (stereo partly specified) | – | > 100 µM | > 100 | > 100 | > 100 | > 100 | > 100 µM | > 100 | > 100 | – | – | –
COC[C@@H](Cc1ccc(OC)c(OC)c1)[C@@H](COC)Cc1ccc(OC)c(OC)c1 | > 100 | – | > 100 | – | > 100 | > 100 | > 100 µM | > 100 | > 100 | > 100 µM | > 100 | –
CCC1(O)CC(OC2CC(N(C)C)C(OC3CC(O)C(OC4CCC(=O)C(C)O4)C(C)O3)C(C)O2)c2c(O)c3c(c(O)c2C1C(=O)OC)C(=O)c1cccc(O)c1C3=O (stereo unspecified) | – | 0.138 µM and 0.119 µM | 0.0125 | 1.02 | – | – | 0.0735 µM and 0.722 µM | – | – | 0.0667 µM and 0.0267 µM | 0.0549 | 0.0106
N#C/C(=C\c1ccccc1Br)C(=O)c1ccccc1 | > 100 | > 100 µM | > 42.6 | – | 52.8 | > 100 | 99.1 µM | > 100 | > 87.3 | > 100 µM | > 100 | –
O=C1N[C@@H](COc2ccc(C=Nc3ccc(CCc4ccc(N=Cc5ccc(OC[C@@H]6COC(=O)N6)cc5)cc4)cc3)cc2)CO1 | > 100 | > 100 µM | > 100 | – | > 100 | – | > 100 µM | > 100 | > 100 | > 100 µM | > 100 | –
COc1ccccc1N=C1SCCN1C(=S)Nc1ccc(S(=O)(=O)/N=C/N(C)C)cc1 | 63.2 | > 100 µM | > 100 | 83.7 | > 100 | > 100 | > 100 µM | > 100 | > 100 | – | – | –
CC1CC[C@@]2(OC1)OC1C[C@H]3[C@@H]4CCC5CC(O)CC[C@]5(C)[C@H]4C/C(=N\N(C)C)[C@]3(C)C1[C@@H]2C (stereo partly specified) | – | 54.7 µM | > 100 | > 100 | > 100 | > 100 | 62.2 µM | 47 | 88.4 | > 100 µM | – | –
CCOP(=O)(OCC)C(C)(C)OC(=O)NC#N | > 100 | > 100 µM | > 100 | > 100 | > 100 | > 100 | > 100 µM | > 100 | > 100 | > 100 µM | – | –
CC(=O)n1ccc2c(Cl)ncnc21 | > 100 | > 100 µM | > 100 | – | > 100 | > 100 | – | > 100 | > 100 | – | > 54.4 | –
CC(C)N(C(C)C)P(OCCC#N)OC1CC(n2cnc3c(=O)[nH]cnc32)OC1COC(=O)NCCCCCCNC(=O)OC(C)(C)c1ccc(-c2ccccc2)cc1 (stereo unspecified) | > 100 | 44.2 µM | 37.5 | – | > 100 | 65 | > 100 µM | > 100 | 57.8 | 89.4 µM | 32.6 | –
C=CCC(SC)C1=C(C)C(=O)c2ccccc21 (stereo unspecified) | > 10 | > 10 µM | > 10 | > 10 | > 10 | > 10 | > 10 µM | > 10 | > 10 | > 10 µM | – | –
COP(C)(=O)C(Cc1c[nH]c2ccccc12)NC(=O)OCc1ccccc1 (stereo unspecified) | > 100 | > 100 µM | > 100 | > 100 | > 100 | > 100 | > 100 µM | > 100 | > 100 | > 100 µM | – | –
CCN(CC)CCNc1ccc2ncn3c4cc(=O)ccc4c(O)c1c23 | 23 | 17.9 µM | 30 | – | 6.15 | 9.61 | 32.5 µM | 41.9 | 32 | 14.9 µM | 5.36 | –
CC(=O)CC(=O)/C=C/c1cccs1 | > 100 | > 100 µM | > 100 | – | > 100 | > 100 | > 100 µM | > 100 | > 100 | > 100 µM | > 100 | –
CC(=O)OCC1OC(N2C(S)=C(C#N)C(c3ccco3)C(C(C)=O)=C2c2ccccc2)C(OC(C)=O)C(OC(C)=O)C1OC(C)=O (stereo unspecified) | – | 45.1 µM | > 100 | > 100 | > 100 | > 100 | > 100 µM | – | > 100 | > 100 µM | > 100 | –
